Assay results reported in article PMC8709388, “In Search of Small Molecules That Selectively Inhibit MBOAT4” (Molecules, 2021).
Like-named read-outs stand apart in the source and are kept apart here.

What was measured:
mouse GOAT = molecular target: T1, mouse GOAT (Mus musculus, UniProt P0C7A3); experiment: Acyltransferase assay: inhibition of proghrelin octanoylation by GOAT in sf9 membrane fractions; format: biochemical; details: for GOAT inhibition in vitro (in words): membrane fractions; for IC50: sf9 membranes containing mouse GOAT, [3H]octanoyl CoA, proghrelin8His, read-out: IC50 (GOAT, membrane fraction, in-house)
T1 construct: made in house; host or cells: sf9 insect cells (baculovirus, pFastBac1-mouseGOAT); total membrane fraction, not purified
T1 sequence (P0C7A3 1-435): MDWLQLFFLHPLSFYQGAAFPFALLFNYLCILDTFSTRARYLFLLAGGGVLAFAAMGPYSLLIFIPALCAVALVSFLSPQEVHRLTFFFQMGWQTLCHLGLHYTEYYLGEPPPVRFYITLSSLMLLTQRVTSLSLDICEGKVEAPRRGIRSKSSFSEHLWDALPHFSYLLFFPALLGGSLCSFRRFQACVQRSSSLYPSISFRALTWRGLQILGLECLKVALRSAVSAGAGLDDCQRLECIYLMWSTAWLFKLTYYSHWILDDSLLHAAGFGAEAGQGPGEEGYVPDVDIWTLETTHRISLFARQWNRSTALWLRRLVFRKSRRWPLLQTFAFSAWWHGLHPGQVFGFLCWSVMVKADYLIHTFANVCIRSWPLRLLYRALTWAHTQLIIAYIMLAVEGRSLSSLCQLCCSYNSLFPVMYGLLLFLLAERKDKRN
Method: pFastBac1-mouseGOAT and pGEX-GST-proGhrelin8His plasmid encoding for mouse proghrelin, fused to GST with TEV cleavage site to release proghrelin moiety, was a kind gift from the Brown and Goldstein laboratory. The BL21Gold E. coli chemically competent cells were transformed with the pGEX-GST-proGhrelin8His plasmid and selected on agar plates with ampicillin. A few colonies were used to inoculate 50 mL LB, and cultures were grown overnight at 37 °C. The next morning, 10 mL of overnight culture was used to inoculate 1L LB. A total of 4 flasks with 1L LB each were inoculated with 10 mL of the overnight culture, and bacterial cultures were grown at 37 °C until they reached OD600 ~ 0.6. The cultures were chilled on ice for 30 min and then 0.25 mM of IPTG was added to each culture. The cultures were then moved back to a shaker set to 18 °C and incubated overnight. Cells were harvested and resuspended in 200 mL buffer containing 25 mM Tris-HCl pH 8.0, 150 mM NaCl, 1 mM EDTA and 0.5 mg/mL lysozyme. The cell suspension was sonicated, and cell debris was removed by centrifugation. The soluble fraction was passed through glutathione resin by gravity. The resin was washed with 75 mL of lysis buffer without lysozyme. The GST-proGhrelin8His protein was eluted with lysis buffer without lysozyme, supplemented with 15 mM reduced glutathione, GSH. About 50 mg of target protein, as evaluated by SDS-PAGE, was eluted. The eluate was supplemented with 1 mM DTT and about 7.5 mg of recombinant GST-TEV protease (see below) was added. The solution was incubated at 16 °C overnight to allow complete release of proghrelin8His from GST. Prior to Ni-NTA chromatography, 5 mM CaCl2 was added, and the solution was spun down at 4000× g for 10 min. After elution from Ni-NTA resin, protein solution was dialyzed against buffer containing 10 mM Tris-HCl pH 8.5, 50 mM NaCl, 10% glycerol and 0.01% CHAPS using 3 kDa cutoff membrane with 3 buffer exchanges. The protein was quantified by absorbance at A280 and qualified by SDS-PAGE.
The baculovirus expression of mouse GOAT. DH10Bac E. coli strain (ThermoFisher, Waltham, MA, USA) was transformed with pFastBac1-mouseGOAT plasmid, and Bacmid DNA from 12 white colonies was analyzed by DNA sequencing and PCR reaction. All clones were transfected to sf9 cells and level of mGOAT expression was compared between clones from cells producing P2. The clone with the highest mGOAT expression level was used to produce P3. For membrane isolation, sf9 cells were seeded at 2–4 × 10^6 /mL in total 1 L volume of sf-900 serum-free medium (ThermoFisher) and infected with P3 virus. At day 2 post-infection, cells were harvested and resuspended in 40 mL of buffer containing 50 mM NaPi pH 7.2, 150 mM NaCl, 1 mM EDTA, 100 μM bis (4-nitrophenyl) phosphate, 2.5 μg/mL aprotinin, 10 μg/mL leupeptin, 10 μg/mL pepstatin A. Cell suspension was briefly sonicated and cell debris was removed by centrifugation at 3000× g for 10 min. Membrane fraction was collected from supernatant by centrifugation at 100,000× g for 1 h. Membrane pellet was resuspended in storage buffer (50 mM NaPi pH 7.2, 150 mM NaCl and 10% glycerol) and kept at −80 °C. Acyltransferase assay: The assay conditions included per 50 μL reaction: 50 μg of total sf9 membranes, various (for modality experiment) or fixed (for IC50) concentrations of recombinant proghrelin8His peptide and various concentrations of tested compound (for IC50), 100 μM palmitoyl CoA, 50 mM HEPES pH 7.0 and 1 μM [^3H] octanoyl CoA (~5.5 dpm/fmol—American Radioactive Chemicals). After incubation of the reaction mixture at 37C for 10 min, tubes were placed on ice and 10 μL of 1M HCl was added to each tube. Following the addition of 740 μL of cold quench buffer (50 mM NaPi pH 7.4, 10 mM Imidazole, 150 mM NaCl, 100 μM bis (4-nitrophenyl) phosphate, 1 mM phenylmethylsulfonyl fluoride and 0.1% Triton), 0.2 mL of 50% Ni-NTA slurry was added to each reaction. […]

GOAT = details: read-out: lit. IC50, cited from earlier work
ghrelin production = system: ghrelin production; parameters: method as in earlier work; details: cited from earlier work

Row | IC50 (mouse GOAT) [nM] | SMILES | GOAT inhibition in vitro (in words) (mouse GOAT) | IC50 (GOAT; Eli Lilly compound) [nM] | adverse side effects (ghrelin production; at doses that inhibited ghrelin production) | ghrelin production in vivo (ghrelin production) | oral bioavailability (ghrelin production) | IC50 (GOAT; Boehringer Ingelheim compound) [nM]
1 | 88 | Cc1nc(Cl)nc(N)c1CCC1CCN(C(=O)[C@H](C)NC(=O)c2ccnn2C)CC1 [compound 5] |  | 57 | did not cause observable adverse side effects | inhibited ghrelin production in vivo | orally bioavailable | 
2 | 64 | CNC(=O)c1cccc(Cc2c(C)nc3nonc3c2N)n1 [compound 6, reference compound] |  |  |  |  |  | 0.24
3 | 84 | Cc1nc2nonc2c(N)c1CCC1CCN(C(=O)[C@H](C)NC(=O)c2ccnn2C)CC1 [compound 11, (S)-N-(1-(4-(2-(7-amino-5-methyl-[1,2,5]oxadiazolo[3,4-b]pyridin-6-yl)ethyl)pip-eridin-1-yl)-1-oxopropan-2-yl)-1-methyl-1H-pyrazole-5-carboxamide] | as potently as did 5 and 6 |  |  |  |  | 

Row | SMILES | IC50 (mouse GOAT) [nM] | GOAT inhibition in vitro (in words) (mouse GOAT) | IC50 (GOAT; Eli Lilly compound) [nM] | adverse side effects (ghrelin production; at doses that inhibited ghrelin production) | ghrelin production in vivo (ghrelin production) | oral bioavailability (ghrelin production) | IC50 (GOAT; Boehringer Ingelheim compound) [nM]
4 | CCCCOCC(=O)N1CCC(CCc2c(C)nc3nonc3c2N)CC1 [compound 10, 1-(4-(2-(7-amino-5-methyl-[1,2,5]oxadiazolo[3,4-b]pyridin-6-yl)ethyl)piperidin-1-yl)-2-butoxyethan-1-one] | 63 | as potently as did 5 and 6 |  |  |  |  | 
